Test results published in PMC4627794, “Non-Selective Cannabinoid Receptor Antagonists, Hinokiresinols Reduce Infiltration of Microglia/Macrophages into Ischemic Brain Lesions in Rat via Modulating 2-Arachidonolyglycerol-Induced Migration and Mitochondrial Activity” (PLoS ONE, 2015).

How the values were obtained:
[1] = biological target: T1, hCB2R (human CB2R) (Homo sapiens, UniProt P34972); experiment: competition radioligand binding, [3H]CP-55, […]
T1 construct: gene CNR2; full-length receptor stably expressed in CHO cells
T1 sequence (P34972 whole entry): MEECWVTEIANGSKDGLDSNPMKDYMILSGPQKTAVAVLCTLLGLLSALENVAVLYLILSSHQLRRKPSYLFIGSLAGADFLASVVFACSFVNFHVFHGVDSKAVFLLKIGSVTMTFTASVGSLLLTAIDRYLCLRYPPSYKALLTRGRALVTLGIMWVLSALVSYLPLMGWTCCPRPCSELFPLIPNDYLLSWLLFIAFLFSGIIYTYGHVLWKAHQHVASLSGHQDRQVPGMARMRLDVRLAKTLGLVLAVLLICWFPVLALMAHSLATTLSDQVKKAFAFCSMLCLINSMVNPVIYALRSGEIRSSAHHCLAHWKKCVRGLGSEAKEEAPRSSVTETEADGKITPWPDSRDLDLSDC

[2] = biological target: T2, CB1R (U2 OS cells, reporter gene assay) (Homo sapiens, UniProt P21554); experiment: SRE-luciferase reporter gene assay, agonism; type: cell-based; details: agonist mode
T2 construct: gene CNR1; receptor stably expressed in U2 OS cells
T2 sequence (P21554 whole entry): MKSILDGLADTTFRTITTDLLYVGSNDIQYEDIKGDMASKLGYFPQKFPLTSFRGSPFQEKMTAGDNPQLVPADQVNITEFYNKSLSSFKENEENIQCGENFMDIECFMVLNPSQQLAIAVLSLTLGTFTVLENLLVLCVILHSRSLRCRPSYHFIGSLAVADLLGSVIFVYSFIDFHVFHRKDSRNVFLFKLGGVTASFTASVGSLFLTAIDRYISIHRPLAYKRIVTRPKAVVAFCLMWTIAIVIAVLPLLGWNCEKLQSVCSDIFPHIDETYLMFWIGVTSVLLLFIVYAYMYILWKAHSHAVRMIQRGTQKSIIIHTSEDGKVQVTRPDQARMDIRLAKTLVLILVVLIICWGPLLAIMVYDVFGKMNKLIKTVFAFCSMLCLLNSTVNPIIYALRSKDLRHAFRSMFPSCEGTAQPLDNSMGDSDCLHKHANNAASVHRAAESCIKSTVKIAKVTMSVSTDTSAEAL

[3] = biological target: T2, CB1R (U2 OS cells, reporter gene assay); experiment: SRE-luciferase reporter gene assay, antagonism; type: cell-based
Source text: SRE-luciferase reporter gene assay, antagonism on CB1R (U2 OS cells, reporter gene assay) | antagonism for CB1R and CB2R with IC50 values in micromolar ranges

[4] = biological target: T1, hCB2R (human CB2R); experiment: forskolin-stimulated cAMP accumulation, antagonism; type: cell-based
Source text: forskolin-stimulated cAMP accumulation, antagonism on hCB2R (human CB2R) | antagonism for CB1R and CB2R with IC50 values in micromolar ranges

Structure (SMILES) | Ki [1] [µM] | EC50 [2] [µM] | IC50 [3] [µM] | IC50 [4] [µM]
CN1CCCCC1Cn1cc(C(=O)c2cc([N+](=O)[O-])ccc2I)c2ccccc21 (centres unmarked) [AM-1241, reference compound] | 0.0066 | – | – | –
CCCCCCC(C)(C)c1cc(O)c2c(c1)OC(C)(C)[C@@H]1CC=C(CO)C[C@@H]21 [Hu-210] | – | 0.000199 | – | –
C=C[C@@H](/C=C\c1ccc(O)cc1)c1ccc(O)cc1 [cis-hinokiresinol] | 12.2 | – | 11.2 | 72.5
C=C[C@@H](/C=C/c1ccc(O)cc1)c1ccc(O)cc1 [trans-hinokiresinol] | 9.5 | – | 10.2 | 20.5
